From patent US12195427B2, “MASP-2 inhibitors and methods of use” (priority 2018, dated 2025)

Target: MASP-2 CCP2-SP (Homo sapiens (Human), UniProt O00187)
Assay: MASP-2 co-crystallization, X-ray crystallography and structure analysis (H-bonds, van der Waals contacts);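 as to Ligand-pharmacophore element distance, pharmacophore element C2: distance from averaged pharmacophore element to bound ligand; missing value means element absent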;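 as to Ligand-pharmacophore element distance, pharmacophore element C3: distance from averaged pharmacophore element to bound ligand; missing value means element absent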;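 as to Ligand-pharmacophore element distance, pharmacophore element C4: distance from averaged pharmacophore element to bound ligand; missing value means element absent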;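 as to Ligand-pharmacophore element distance, pharmacophore element C5: distance from averaged pharmacophore element to bound ligand; missing value means element absent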
Design: van der Waals contact distance, MASP-2 HIS 483 atom CD2 / van der Waals contact distance, MASP-2 HIS 483 atom NE2 / van der Waals contact distance, SER 654 C to compound atom / van der Waals contact distance, SER 654 O to compound atom / van der Waals contact distance, TRP 655 C to compound atom / van der Waals contact distance, MASP-2 GLY 528 atom CA / van der Waals contact distance TRP 655 atom CZ3 / van der Waals contact distance TRP 655 atom N / van der Waals contact distance TRP 655 atom CE3 / van der Waals contact distance GLY 656 atom C / van der Waals contact distance GLY 656 atom CA / van der Waals contact distance GLY 656 atom O / van der Waals contact distance, MASP-2 TYR 607 atom CD1 / van der Waals contact distance, MASP-2 PRO 606 atom O / d(C3,CA1) / d(CA1,N1)2 / d(H4,O1) / d(H4,O2) / d(O1,O2) / d(CA1,O2) / d(CA6,O1) / d(CA6,O2) / d(CA1,C5) / d(O2,H3) / d(N2,C2) / d(CA5,N2) / d(N2,C4) / d(N2,C6) / d(N2,CA3) / d(N2,O3) / d(O4,H2): unit not given beside the values
Conditions: for Ligand-pharmacophore element distance, pharmacophore element C2 / Ligand-pharmacophore element distance, pharmacophore element C3 / Ligand-pharmacophore element distance, pharmacophore element C4 / Ligand-pharmacophore element distance, pharmacophore element C5 / Ligand-pharmacophore element distance, pharmacophore element C6 / Ligand-pharmacophore element distance, pharmacophore element C7 / Ligand-pharmacophore element distance, pharmacophore element CA1 / Ligand-pharmacophore element distance, pharmacophore element CA2 / Ligand-pharmacophore element distance, pharmacophore element CA3 / Ligand-pharmacophore element distance, pharmacophore element CA4 / Ligand-pharmacophore element distance, pharmacophore element CA5 / Ligand-pharmacophore element distance, pharmacophore element CA6: Table A4-1; for d(CA1,O1) / d(CA1,O2) / d(H4,O1) / d(H4,O2) / d(O1,O2) / d(C3,CA1) / d(CA1,N1)2: Table A5-1 pharmacophore: distance between elements, S2/S1 region; for a(CA1, O1, O2) / a(O1, O2, H4) / a(C3, CA1, O1) / a(N1, CA1, O1) b): Table A6-1 pharmacophore angle; for Pharmacophore torsion angle a(H4, O1, O2, H3) / Pharmacophore torsion angle a(H4, O1, O2, N2) / Pharmacophore torsion angle a(O1, H4, O2, CA1) / Pharmacophore torsion angle a(C3, CA1, O1, H4) / Pharmacophore torsion angle a(N1, CA1, O1, H4): Table A7-1; for a(N1, CA1, O1) b): Methyl-amino-pyridine compounds
How it was run: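 Contacts and H-bonds come from partially refined soaked-crystal structures of recombinant human CCP2-SP made in E. coli, solved by molecular replacement against 1Q3X fragments. Where several ligand poses appeared, only one was analysed; listed nonbonded contacts may include possible H-bond pairings.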

[1] = Table A5-2 pharmacophore distance, S3/S4 region
[2] = between pharmacophore elements of the bound compound
[3] = Table A7-2, between pharmacophore elements of the bound compound

MASP-2 CCP2-SP, sequence (O00187 445-686): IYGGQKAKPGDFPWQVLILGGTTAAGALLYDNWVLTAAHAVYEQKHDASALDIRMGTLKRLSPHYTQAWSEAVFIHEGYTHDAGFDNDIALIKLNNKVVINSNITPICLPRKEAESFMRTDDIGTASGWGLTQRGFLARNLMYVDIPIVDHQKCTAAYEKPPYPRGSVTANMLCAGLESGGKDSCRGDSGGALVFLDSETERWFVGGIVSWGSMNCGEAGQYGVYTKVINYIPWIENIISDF
MASP-2 CCP2-SP, sequence (O00187 364-432 partner): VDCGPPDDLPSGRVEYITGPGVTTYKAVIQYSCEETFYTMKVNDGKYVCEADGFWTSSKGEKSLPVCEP

Row | SMILES | Ligand-pharmacophore element distance, pharmacophore element C2 | Ligand-pharmacophore element distance, pharmacophore element C3 | Ligand-pharmacophore element distance, pharmacophore element C4 | Ligand-pharmacophore element distance, pharmacophore element C5 | Ligand-pharmacophore element distance, pharmacophore element C6 | Ligand-pharmacophore element distance, pharmacophore element C7 | Ligand-pharmacophore element distance, pharmacophore element CA1 | Ligand-pharmacophore element distance, pharmacophore element CA2 | Ligand-pharmacophore element distance, pharmacophore element CA3 | Ligand-pharmacophore element distance, pharmacophore element CA4 | Ligand-pharmacophore element distance, pharmacophore element CA5 | Ligand-pharmacophore element distance, pharmacophore element CA6 | d(CA1,O1) | d(CA1,O2) | d(H4,O1) | d(H4,O2) | d(O1,O2) | d(N2,CA2) [1] | d(O2,H3) [1] | d(O2,N2) [1] | also measured
1 | CC(=O)Nc1ccc(CCNC(CCc2ccccc2)C(=O)NC(C)C(=O)NCc2ccc(C(=N)N)cc2)cc1.Cl.Cl (stereo not drawn) [1345_1] | 0 | 0 | 0 | 0 | 0 | 0 | 0.51 | 1.2 | 1.44 | 0 | 0 | 0 | 4.52 | 4.49 | 4.08 | 3.57 | 3.48 | 6.14 | 5.98 | 2.90 | d(N2,CA3) [1]: 5.17; d(N2,O3) [1]: 8.75; a(CA1, O1, O2): 112.39; a(O1, O2, H4): 126.38; a(O1, O2, H3) (Table A6-2 pharmacophore angle): 149.79; a(O1, O2, N2) (Table A6-2 pharmacophore angle): 134.33; a(O2, N2, CA2) (Table A6-2 pharmacophore angle): 153.15; a(O2, N2, CA3) (Table A6-2 pharmacophore angle): 153.91; a(O2, N2, O3) (Table A6-2 pharmacophore angle): 163.54; Pharmacophore torsion angle a(H4, O1, O2, H3) [2]: 39.71; Pharmacophore torsion angle a(H4, O1, O2, N2) [2]: 114.36; Pharmacophore torsion angle a(O1, H4, O2, CA1) [2]: −62.84; Pharmacophore torsion angle a(O1, O2, N2, CA2) [3]: 138.94; Pharmacophore torsion angle a(O1, O2, N2, CA3) [3]: −27.29; Pharmacophore torsion angle a(O1, O2, N2, O3) [3]: −11.99
2 | CC(=O)Nc1ccc(CCNC(CCc2ccccc2)C(=O)NC(C)C(=O)NCc2ccc(C(=N)N)cc2)cc1.Cl.Cl (stereo not drawn) [1345_2] | 0 | 0 | 0 | 0 | 0 | 0 | 0.45 | 0.89 | 1.13 | 0 | 0 | 0 | 4.58 | 4.16 | 4.97 | 4.32 | 3.32 | 5.98 | 5.51 | 2.87 | d(N2,CA3) [1]: 5.15; d(N2,O3) [1]: 8.73; a(CA1, O1, O2): 105.43; a(O1, O2, H4): 138.87; a(O1, O2, H3) (Table A6-2 pharmacophore angle): 152.27; a(O1, O2, N2) (Table A6-2 pharmacophore angle): 142.63; a(O2, N2, CA2) (Table A6-2 pharmacophore angle): 153.90; a(O2, N2, CA3) (Table A6-2 pharmacophore angle): 151.66; a(O2, N2, O3) (Table A6-2 pharmacophore angle): 162.76; Pharmacophore torsion angle a(H4, O1, O2, H3) [2]: 49.59; Pharmacophore torsion angle a(H4, O1, O2, N2) [2]: 128.64; Pharmacophore torsion angle a(O1, H4, O2, CA1) [2]: −68.67; Pharmacophore torsion angle a(O1, O2, N2, CA2) [3]: 129.85; Pharmacophore torsion angle a(O1, O2, N2, CA3) [3]: −34.52; Pharmacophore torsion angle a(O1, O2, N2, O3) [3]: −20.78
3 | Cc1nc(N)ccc1CNC(=O)[C@H](C)NC(=O)[C@H]1C[C@H](Cc2ccccc2Br)CN1.O=C(O)C(F)(F)F.O=C(O)C(F)(F)F [1372_A] | 0 | 0.09 | 1.91 | 0 | 0 | 0 | 0.55 | 0.47 | 0 | 0 | 0 | 0 | 4.38 | 3.94 | 4.40 | 3.88 | 3.32 | 5.99 | 2.30 | 2.66 | d(C3,CA1): 2.85; d(CA1,N1)2: 1.38; d(N2,C4) [1]: 6.06; d(N2,C4)4 [1]: 6.06; a(C3, CA1, O1): 149.88; a(CA1, O1, O2): 106.33; a(O1, O2, H4): 133.23; a(N1, CA1, O1) b): 174.16; a(O1, O2, H3) (Table A6-2 pharmacophore angle): 137.15; a(O1, O2, N2) (Table A6-2 pharmacophore angle): 140.15; a(O2, N2, C4) (Table A6-2 pharmacophore angle): 159.60; a(O2, N2, C4) 2 (Table A6-2 pharmacophore angle): 127.51; a(O2, N2, CA2) (Table A6-2 pharmacophore angle): 155.91; Pharmacophore torsion angle a(C3, CA1, O1, H4) [2]: 25.78; Pharmacophore torsion angle a(H4, O1, O2, H3) [2]: 99.84; Pharmacophore torsion angle a(H4, O1, O2, N2) [2]: 136.36; Pharmacophore torsion angle a(N1, CA1, O1, H4) [2]: 5.73; Pharmacophore torsion angle a(O1, H4, O2, CA1) [2]: −83.68; Pharmacophore torsion angle a(O1, O2, N2, CA2) [3]: 129.48
4 | Cc1nc(N)ccc1CNC(=O)[C@H](C)NC(=O)[C@H]1C[C@H](Cc2ccccc2Br)CN1.O=C(O)C(F)(F)F.O=C(O)C(F)(F)F [1372_B] | 0 | 0.1 | 0 | 0 | 1.46 | 0 | 0.57 | 1.41 | 0 | 0 | 0 | 0 | 4.37 | 4.00 | 4.39 | 3.91 | 3.35 | 6.02 | 2.23 | 2.63 | d(C3,CA1): 2.85; d(CA1,N1)2: 1.38; d(N2,C6) [1]: 5.56; a(C3, CA1, O1): 149.88; a(CA1, O1, O2): 107.52; a(O1, O2, H4): 132.88; a(N1, CA1, O1) b): 174.13; a(O1, O2, H3) (Table A6-2 pharmacophore angle): 139.74; a(O1, O2, N2) (Table A6-2 pharmacophore angle): 143.19; a(O2, N2, C6) (Table A6-2 pharmacophore angle): 115.79; a(O2, N2, CA2) (Table A6-2 pharmacophore angle): 157.88; Pharmacophore torsion angle a(C3, CA1, O1, H4) [2]: 25.77; Pharmacophore torsion angle a(H4, O1, O2, H3) [2]: 99.85; Pharmacophore torsion angle a(H4, O1, O2, N2) [2]: 139.62; Pharmacophore torsion angle a(N1, CA1, O1, H4) [2]: 4.96; Pharmacophore torsion angle a(O1, H4, O2, CA1) [2]: −82.66; Pharmacophore torsion angle a(O1, O2, N2, C6) [3]: 141.41; Pharmacophore torsion angle a(O1, O2, N2, CA2) [3]: 109.73
